The source of these data is PubChem BioAssay (NCI).

Some test systems named below: HCT-15 colon; MALME-3M melanoma; BT-549 breast; SW-620 colon; COLO 205 colon; UACC-62 melanoma; KM12 colon; MOLT-4 leukemia; EKVX NSCLC; HOP-92 NSCLC.
Holding throughout (experiment): NCI-60 cell line screen, 48 h

Molecules are shown by their SMILES.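 Grown in 96-well plates, cells were treated for 48 hours with each compound at five concentrations. Insufficient inhibition: endpoint recorded as highest concentration tested. GI50 is the concentration that inhibits growth by half. The concentration for full growth arrest is given as TGI.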

With `CCN1C(=O)CNc2ncc(-c3ccc(-c4ncn[nH]4)nc3C)nc21`, the GI50 with HCT-15 colon is 0.202 µM; in the test with MALME-3M melanoma, 0.0227 µM; with BT-549 breast, 0.0716 µM; with SW-620 colon it was 0.439 µM; in the test with COLO 205 colon, 0.16 µM; with UACC-62 melanoma, 0.0777 µM. For the same compound, the GI50 was 0.193 µM in the test on KM12 colon, 0.139 µM with MOLT-4 leukemia, 0.188 µM in the test on EKVX NSCLC and 0.0212 µM in the test on HOP-92 NSCLC. In addition, the TGI in the test with HCT-15 colon stood at 10.9 µM; in the test on MALME-3M melanoma, 0.221 µM; with BT-549 breast, 0.695 µM; with SW-620 colon, 12.1 µM; in the test with COLO 205 colon, 1.72 µM; in the test on UACC-62 melanoma it was 0.587 µM. For the same compound, the TGI with KM12 colon came out at 11.3 µM; with MOLT-4 leukemia it was 1.54 µM; with EKVX NSCLC it was 5.77 µM; in the test with HOP-92 NSCLC, 0.168 µM.
For `CC/C=C\C[C@@H]1C/C=C2/C(=O)C=C[C@H]2C/C=C\CCCC(=O)O1`, the GI50 was 0.242 µM in the test on HCT-15 colon; 1.18 µM in the test on MALME-3M melanoma; 0.89 µM in the test with BT-549 breast; 0.483 µM in the test on SW-620 colon; 0.284 µM in the test with COLO 205 colon; 0.735 µM in the test with UACC-62 melanoma. The GI50 with KM12 colon was 0.262 µM; with MOLT-4 leukemia, 0.551 µM; in the test on EKVX NSCLC it was 1.1 µM; in the test with HOP-92 NSCLC, 2.25 µM. For the same compound, the TGI was determined as 0.865 µM in the test on HCT-15 colon; 4.65 µM with MALME-3M melanoma; 2.23 µM in the test on BT-549 breast; 2.02 µM in the test on SW-620 colon; 1.05 µM in the test with COLO 205 colon; 2.66 µM with UACC-62 melanoma. The TGI with KM12 colon is 0.767 µM; in the test on MOLT-4 leukemia it was 2.71 µM; with EKVX NSCLC, 2.44 µM; with HOP-92 NSCLC it was 4.97 µM.
As to `CCN(CC)c1ccc(C(=N)c2ccc(N(CC)CC)cc2)cc1`, the GI50 in the test with HCT-15 colon is 0.416 µM; in the test on MALME-3M melanoma, 0.714 µM; in the test with BT-549 breast it was 1.16 µM; in the test on SW-620 colon, 0.346 µM; in the test on COLO 205 colon it was 0.361 µM; in the test on UACC-62 melanoma, 0.621 µM. Besides, the GI50 with KM12 colon is 0.366 µM; with MOLT-4 leukemia, 0.594 µM; with EKVX NSCLC, 0.868 µM; in the test with HOP-92 NSCLC, 0.607 µM. The TGI in the test on HCT-15 colon was 2.28 µM; with MALME-3M melanoma, 2.48 µM; in the test with BT-549 breast, 5.78 µM; with SW-620 colon, 1.5 µM; in the test on COLO 205 colon it was 1.32 µM; with UACC-62 melanoma, 2.24 µM. Also, the TGI was 1.52 µM in the test with KM12 colon, 4.36 µM in the test with MOLT-4 leukemia, 11.8 µM in the test on EKVX NSCLC and 2.72 µM with HOP-92 NSCLC.
On to `O=C(c1cccc(O)c1O)c1cn(Cc2ccc(F)cc2)c2cccc(O)c12`, for which the GI50 in the test on HCT-15 colon is 1.16 µM; in the test with MALME-3M melanoma, 4.83 µM; with BT-549 breast it was 7.72 µM; with SW-620 colon, 5.26 µM; with COLO 205 colon it was 2.77 µM; with UACC-62 melanoma, 4.27 µM. In addition, the GI50 is 5.46 µM in the test on KM12 colon, 0.84 µM with MOLT-4 leukemia, 9.3 µM in the test on EKVX NSCLC and 0.361 µM with HOP-92 NSCLC. Besides, the TGI with HCT-15 colon turned out to be 14.8 µM; in the test with MALME-3M melanoma, 22 µM; with BT-549 breast, 21.6 µM; in the test with SW-620 colon it was 19.9 µM; with COLO 205 colon, 10.7 µM; with UACC-62 melanoma it was 14.6 µM. Also, the TGI was 19.4 µM in the test with KM12 colon, 10.3 µM in the test on MOLT-4 leukemia, over 54.4 µM in the test on EKVX NSCLC and 7.44 µM in the test with HOP-92 NSCLC.
As for `CN(C)c1ccc(N)cc1`, the GI50 with HCT-15 colon was 6.66 µM; in the test with MALME-3M melanoma, 3.17 µM; in the test on BT-549 breast it was 4.7 µM; in the test on SW-620 colon it was 4.15 µM; in the test with COLO 205 colon, 1.97 µM; in the test with UACC-62 melanoma, 4 µM. In addition, the GI50 in the test on KM12 colon is 3.25 µM; in the test on EKVX NSCLC, 3.32 µM; with HOP-92 NSCLC, 2.3 µM. In addition, the TGI came out at 38.5 µM in the test on HCT-15 colon; 13.8 µM in the test on MALME-3M melanoma; 16.1 µM in the test on BT-549 breast; 17.2 µM with SW-620 colon; 4.54 µM with COLO 205 colon; 16.8 µM in the test with UACC-62 melanoma. Further, the TGI is 12.2 µM in the test with KM12 colon, 26.4 µM in the test with EKVX NSCLC and 7.91 µM in the test with HOP-92 NSCLC.
Consider `O=C(CCl)Nc1ccc(Cl)cc1`, for which the GI50 with HCT-15 colon was 2.27 µM; in the test on MALME-3M melanoma, 3.33 µM; with BT-549 breast, 2.78 µM; with SW-620 colon it was 3.45 µM; in the test on COLO 205 colon it was 1.98 µM; in the test on UACC-62 melanoma it was 3.6 µM. Also, the GI50 in the test with KM12 colon was 8.06 µM; in the test with EKVX NSCLC, 6.93 µM; in the test with HOP-92 NSCLC, 6.67 µM. In addition, the TGI with HCT-15 colon turned out to be 6.33 µM; in the test on MALME-3M melanoma, 13.2 µM; with BT-549 breast, 9.92 µM; with SW-620 colon, 11.2 µM; in the test with COLO 205 colon it was 3.61 µM; with UACC-62 melanoma it was 17 µM. Also, the TGI in the test on KM12 colon came out at 21 µM; in the test with EKVX NSCLC, 26.3 µM; in the test with HOP-92 NSCLC, 20.7 µM.
For the compound `NC(N)=NCCCn1c2c(c3ccccc3c1=O)C(=O)c1ccccc1-2`, the GI50 in the test on MALME-3M melanoma is 18.6 µM; with BT-549 breast, 2.28 µM; in the test on SW-620 colon it was 14.5 µM; in the test on COLO 205 colon it was 21.2 µM; with UACC-62 melanoma, 10.9 µM; in the test on KM12 colon it was 21.9 µM. Also, the GI50 in the test with MOLT-4 leukemia was 2.65 µM; with EKVX NSCLC it was 16.6 µM; in the test on HOP-92 NSCLC, 3.2 µM. Also, the TGI came to 45.1 µM in the test on MALME-3M melanoma; 5.51 µM with BT-549 breast; 31 µM with SW-620 colon; 79.7 µM in the test with COLO 205 colon; 25.7 µM in the test with UACC-62 melanoma; 59.1 µM in the test on KM12 colon. In addition, the TGI stood at 18.8 µM in the test with MOLT-4 leukemia, 58.5 µM with EKVX NSCLC and 47.5 µM in the test with HOP-92 NSCLC.
On to `C[N+](C)(C)CC1CCCC(C[N+](C)(C)C)C1=O` (stereo not drawn), for which the TGI is 0.874 µM in the test on HCT-15 colon; 0.487 µM in the test with MALME-3M melanoma; 3.09 µM in the test on BT-549 breast; 0.923 µM in the test on COLO 205 colon; 10.9 µM with UACC-62 melanoma; 12.5 µM in the test with KM12 colon. For the same compound, the results for the TGI in the test with MOLT-4 leukemia, in the test with EKVX NSCLC and with HOP-92 NSCLC were 3.85 µM, 3.95 µM and 1.17 µM, respectively.
